Reference: publication PMC11473416, “Coumarin-chalcone derivatives as dual NLRP1 and NLRP3 inflammasome inhibitors targeting oxidative stress and inflammation in neurotoxin-induced HMC3 and BE(2)-M17 cell models of Parkinson's disease” (Frontiers in Aging Neuroscience, 2024)
pEC50: −log10 of the molar value.

Legend:
[1] = cytotoxicity MTT assay in HMC3 cells; assay type: cell-based, human; conditions: human, HMC3 microglial cells, MTT, 1–100 μM, 24 h
Method: (§1) Human HMC3 microglial (CRL-3304) and neuroblastoma BE(2)-M17 (CRL-2267) cells were obtained from American Type Culture Collection. BE(2)-M17 develops a better dopaminergic phenotype than SH-SY5Y when treated with retinoic acid to direct neuronal differentiation (Carvajal-Oliveros et al., [2022]). Cells were routinely maintained in Dulbecco's Modified Eagle Medium-Nutrient Mixture F12 (DMEM-F12) supplemented with 10% fetal bovine serum (FBS; Thermo Fisher Scientific, Waltham, MA, USA) in a 37°C incubator, with 95% relative humidity and 5% CO2 (NuAire, Plymouth, MN, USA).
(§2) To evaluate cytotoxicity of LM compounds and MPP^+, HMC3 (1 × 10^4) or BE(2)-M17 (2 × 10^4) cells were plated on 96-well dishes, grown for 20 h, and treated with LM compounds (1–100 μM) or MPP^+ [HMC3: 0–8 mM; BE(2)-M17: 0–5 mM]. Next day, 20 μl of tetrazolium dye 3-(4,5-dimethylthiazol-2-yl)-2,5-diphenyltetrazolium bromide (MTT, 5 mg/ml; Sigma-Aldrich) was added to the cells at 37°C for 3 h. The resulted insoluble purple formazan products were dissolved by lysis buffer (composition: 10% Triton X-100, 0.1 N HCl, 18% isopropanol). The absorbance of the dissolved product at optical density (OD) 570 nm was read by using a FLx800 fluorescence microplate spectrophotometer (Bio-Tek, Winooski, VT, USA). The half maximal inhibitory concentration (IC50) of LM compounds was determined through the construction of a dose-response curve. MPP^+ at 4 mM (HMC3 cell viability: 65%−69%) or 0.62 mM [BE(2)-M17 cell viability: 79%−84%] was selected to induce inflammation for further experiments.

[2] = cytotoxicity MTT assay in BE(2)-M17 cells; assay type: cell-based, human; conditions: human, BE(2)-M17 neuroblastoma cells, MTT, 1–100 μM, 24 h
Method: as §1, §2

[3] = DPPH free radical scavenging activity; conditions: 10–160 μM, 30 min, room temperature
Method: Stable 1,1-diphenyl-2-picrylhydrazyl (DPPH) radical in ethanol (100 μM; Sigma-Aldrich) was used to measure the antioxidant activity of these LM compounds. After addition of quercetin (positive control) or LM compound (10–160 μM), the mixture was vortexed for 15 s and incubated at room temperature for 30 min. Subsequently, the mixture was measured spectrophotometrically at 517 nm (Multiskan GO microplate spectrophotometer; Thermo Fisher Scientific). The free radical scavenging activity was calculated as the percentage of DPPH discoloration using the formula 1 – (absorbance of sample/absorbance of control) × 100%, with half maximal effective concentration (EC50) calculated using the interpolation method.

[4] = oxygen radical antioxidant capacity (OxiSelect kit); conditions: at 4–100 μM concentration
Method: The test of oxygen radical antioxidant capacity (Ou et al., [2001]) was performed using OxiSelect™ kit (Cell Biolabs, San Diego, CA, USA). Briefly, trolox standards (2.5–50 μM) and LM compounds (4–100 μM) were prepared using a serial dilution in a mixture containing 50% acetone and 50% water. After adding fluorescein to blank (50% acetone/50% water), standards, or samples, the mixture was mixed and incubated at 37°C for 30 min. Subsequently, free radical initiator 2,2′-azobis(2-methylpropionamidine) dihydrochloride (AAPH) was added to generate peroxyl radicals (ROO•). The quenching of fluorescent probe over time was recorded at 480 nm excitation and 520 nm emission for 60 min (Bio-Tek FLx800). To quantify the oxygen radical absorbance capacity, the area under the curve (AUC) for blank, standard and samples were calculated. After subtraction of the blank, trolox equivalent (μM) of samples were determined using a calibration curve with trolox standards.

pEC50 [3] | SMILES | IC50 at 24 h [1] [µM] | IC50 at 24 h [2] [µM] | oxygen radical antioxidant capacity, trolox equivalent [4] [µM]
 | COc1ccccc1/C=C/C(=O)c1c(O)c2ccccc2oc1=O [LM-009] | > 100 | > 100 | 
4.68 | O=c1c(O)c(-c2ccc(O)c(O)c2)oc2cc(O)cc(O)c12 [Quercetin, reference compound] |  |  | 14 to 39
